7 molecules from PubChem BioAssay AID1259411 (Chemical Carcinogenesis Research Information System (CCRIS), 2018) can be followed below.

The series has as its system rodent carcinogenicity bioassays, tumor incidence. The series is described as follows: CCRIS carcinogenicity studies. Put shortly:
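NCI-built, expert-reviewed records of carcinogenicity and related test outcomes (mutagenicity, tumor promotion/inhibition) compiled from published and report sources, historical span 1985-2011, not updated.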

Activity calls are given as the source filed them. The rule behind the calls is not given here.

With `Cc1ccc2c(c1N)C(=O)c1ccccc1C2=O`, the carcinogen call by setting is: (Species: MOUSE, Strain/Sex: B6C3F1/FEMALE, Route: ORAL, Dose: 0, 0.06% OF DIET (2 DOSAGE REGIMENS--A & B RECEIVING SAME CONC), TWA, Tumor Site: Type of Lesion: LIVER: HEPATOCELLULAR CARCINOMA, NEOPLASTIC NODULE) “active; positive”; (Species: MOUSE, Strain/Sex: B6C3F1/MALE, Route: ORAL, Dose: 0, 0.06% OF DIET (2 DOSAGE REGIMENS--A & B RECEIVING SAME CONC), TWA) “inactive; negative”; (Species: RAT, Strain/Sex: F344/FEMALE, Route: ORAL, Dose: 0, 0.10, 0.20% OF DIET, Dose: 0, 0.10, 0.20% OF DIET, Tumor Site: Type of Lesion: LIVER: HEPATOCELLULAR CARCINOMA, NEOPLASTIC NODULE) “active; positive”; (Species: RAT, Strain/Sex: F344/MALE, Route: ORAL, Dose: 0, 0.10, 0.20% OF DIET, Dose: 0, 0.10, 0.20% OF DIET, Tumor Site: Type of Lesion: LIVER: HEPATOCELLULAR CARCINOMA, NEOPLASTIC NODULE, KIDNEY: TUBULAR CELL ADENOMA, TUBULAR CELL ADENOCARCINOMA, ADENOCARC) “active; positive”.

On to `CC(=O)N(O[C@@H]1O[C@H](C(=O)O)[C@@H](O)[C@H](O)[C@H]1O)c1ccc2c(c1)Cc1ccccc1-2`, for which the carcinogen call is, setting by setting: (Species: RAT, Strain/Sex: F344/MALE, Route: INJECTION, Dose: 0, 1 UMOL IN 0.5 ML OF SOLUTION CONTAINING 0.4 ML PHOSPHATE BUFFERED SALINE/ GENTAMYCIN (PH 7) AND 0.1 ML DMSO INJECTED) “inactive; negative”; (Species: RAT, Strain/Sex: F344/MALE, Route: INJECTION, Dose: 0, 1 UMOL IN 0.5 ML OF SOLUTION CONTAINING 0.4 ML PHOSPHATE BUFFERED SALINE/ GENTAMYCIN (PH 8) AND 0.1 ML DMSO INJECTED) “inactive; negative”.

As to `Cc1cc(-c2ccc(N)c(C)c2)ccc1N`, the carcinogen call by setting is: (Species: MOUSE, Strain/Sex: BALB/FEMALE, Route: ORAL, Dose: 0, 5, 9, 18, 35, 70, 140 PPM IN DRINKING WATER 7 D/WK FOR DURATION OF STUDY (STUDY DURATION: 112 WK), Dose: 0, 5, 9, 18, 35, 70, 140 PPM IN DRINKING WATER 7 D/WK FOR DURATION OF STUDY (STUDY DURATION: 112 WK)) “inactive; negative”; (Species: MOUSE, Strain/Sex: BALB/MALE, Route: ORAL, Dose: 0, 5, 9, 18, 35, 70, 140 PPM IN DRINKING WATER 7 D/WK FOR DURATION OF STUDY (STUDY DURATION: 112 WK), Dose: 0, 5, 9, 18, 35, 70, 140 PPM IN DRINKING WATER 7 D/WK FOR DURATION OF STUDY (STUDY DURATION: 112 WK), Tumor Site: Type of Lesion: LUNG: ALVEOLAR CELL ADENOMA AND ADENOCARCINOMA) “active; positive”; (Species: RAT, Route: SUBCUTANEOUS, Tumor Site: Type of Lesion: EAR (ZYMBAL GLAND)) “active; positive”; (Species: RAT, Strain/Sex: F344/FEMALE, Route: ORAL, Dose: 0, 30, 70, 150 PPM IN DRINKING WATER 7 D/WK FOR 60-61 WK (STUDY DURATION: 60-61 WK), Dose: 0, 30, 70, 150 PPM IN DRINKING WATER 7 D/WK FOR 60-61 WK (STUDY DURATION: 60-61 WK)) “active; positive”; (Species: RAT, Strain/Sex: F344/MALE, Route: ORAL, Dose: 0, 30, 70, 150 PPM IN DRINKING WATER 7 D/WK FOR 60-61 WK (STUDY DURATION: 60-61 WK), Dose: 0, 30, 70, 150 PPM IN DRINKING WATER 7 D/WK FOR 60-61 WK (STUDY DURATION: 60-61 WK), Tumor Site: Type of Lesion: PREPUTIAL GLAND: ADENOMA, ADENOMA OR CARCINOMA, LARGE INTESTINE: ADENOMATOUS POLYP, ADENOCARCINOMA, SMALL INTESTINE: ADE, Tumor Site: Type of Lesion: PREPUTIAL GLAND: ADENOMA, ADENOMA OR CARCINOMA, LARGE INTESTINE: ADENOMATOUS POLYP, ADENOCARCINOMA, SMALL INTESTINE: ADE) “active; positive”.

In the case of `O=C1CCc2ccccc2O1`, the carcinogen call (Species: MOUSE, Strain/Sex: B6C3F1/FEMALE, Route: GAVAGE, Dose: 0, 200, 400, 800 MG/KG IN CORN OIL 1/D 5 D/WK FOR 103 WK (STUDY DURATION: 103 WK), Dose: 0, 200, 400, 800 MG/KG IN CORN OIL 1/D 5 D/WK FOR 103 WK (STUDY DURATION: 103 WK), Tumor Site: Type of Lesion: LIVER: HEPATOCELLULAR ADENOMA, HEPATOCELLULAR ADENOMA OR CARCINOMA) was “active; positive”; the carcinogen call (Species: MOUSE, Strain/Sex: B6C3F1/MALE, Route: GAVAGE, Dose: 0, 200, 400, 800 MG/KG IN CORN OIL 1/D 5 D/WK FOR 103 WK (STUDY DURATION: 103 WK), Dose: 0, 200, 400, 800 MG/KG IN CORN OIL 1/D 5 D/WK FOR 103 WK (STUDY DURATION: 103 WK)) is “inactive; negative”; the carcinogen call (Species: RAT, Strain/Sex: F344/FEMALE, Route: GAVAGE, Dose: 0, 150, 300, 600 MG/KG IN CORN OIL 1/D 5 D/WK FOR 103 WK (STUDY DURATION: 103 WK), Dose: 0, 150, 300, 600 MG/KG IN CORN OIL 1/D 5 D/WK FOR 103 WK (STUDY DURATION: 103 WK)) was “inactive; negative”; the carcinogen call (Species: RAT, Strain/Sex: F344/MALE, Route: GAVAGE, Dose: 0, 150, 300, 600 MG/KG IN CORN OIL 1/D 5 D/WK FOR 103 WK (STUDY DURATION: 103 WK), Dose: 0, 150, 300, 600 MG/KG IN CORN OIL 1/D 5 D/WK FOR 103 WK (STUDY DURATION: 103 WK), Tumor Site: Type of Lesion: KIDNEY (RENAL TUBULE): ADENOMA) was “active; positive”.

Regarding `CC(C)CCC[C@@H](C)[C@H]1CC[C@H]2[C@@H]3C[C@@H]4O[C@@]45C[C@@H](O)CC[C@]5(C)[C@H]3CC[C@]12C`, the carcinogen call (Species: RAT, Strain/Sex: STRAIN-CD/FEMALE, Route: INJECTION, Dose: 0, 12.3 UMOL (TOTAL DOSE) 1/6 INJECTED UNDER EACH OF 3 THORACIC AND 3 INGUINAL NIPPLES ONCE (STUDY DURATION: 44 WK)) was “inactive; negative”.

`CCOC(=O)C(O)(c1ccc(Cl)cc1)c1ccc(Cl)cc1`: the carcinogen call reads like this: (Species: MOUSE, Strain/Sex: B6C3F1/FEMALE, Route: ORAL, Dose: 0, 3200, 5908 PPM IN DIET FOR 78 WK (STUDY DURATION: 90-91 WK), Dose: 0, 3200, 5908 PPM IN DIET FOR 78 WK (STUDY DURATION: 90-91 WK), Tumor Site: Type of Lesion: LIVER: HEPATOCELLULAR CARCINOMA) “active; positive”; (Species: MOUSE, Strain/Sex: B6C3F1/MALE, Route: ORAL, Dose: 0, 4231, 7846 PPM IN DIET FOR 78 WK (STUDY DURATION: 90-91 WK), Dose: 0, 4231, 7846 PPM IN DIET FOR 78 WK (STUDY DURATION: 90-91 WK), Tumor Site: Type of Lesion: LIVER: HEPATOCELLULAR CARCINOMA) “active; positive”; (Species: RAT, Strain/Sex: OSBORNE-MENDEL/FEMALE, Route: ORAL, Dose: 0, 1175, 2229 PPM IN DIET FOR 78 WK (STUDY DURATION: 110-111 WK), Dose: 0, 1175, 2229 PPM IN DIET FOR 78 WK (STUDY DURATION: 110-111 WK), Tumor Site: Type of Lesion: ADRENAL GLAND: CORTICAL ADENOMA) “equivocal”; (Species: RAT, Strain/Sex: OSBORNE-MENDEL/MALE, Route: ORAL, Dose: 0, 1600, 2995 PPM IN DIET FOR 78 WK (STUDY DURATION: 110-111 WK), Dose: 0, 1600, 2995 PPM IN DIET FOR 78 WK (STUDY DURATION: 110-111 WK), Tumor Site: Type of Lesion: ADRENAL GLAND: CORTICAL ADENOMA) “equivocal”.

For the molecule `O=Cc1ccc(CO)o1`, the carcinogen call reads like this: (Species: MOUSE, Strain/Sex: B6C3F1/MALE, Route: INTRAPERITONEAL, Dose: 0, 0.25, 1 UMOL/G BW IN 5 µL DMSO/G BW ONCE, Dose: 0, 0.25, 1 UMOL/G BW IN 5 µL DMSO/G BW ONCE) “inactive; negative”; (Species: MOUSE, Strain/Sex: CD-1/FEMALE, Route: DERMAL, Dose: 0, 50 UMOL/0.1 ML DMSO 2/WK FOR 5 WK FOLLOWED 1 WK LATER BY 0.1 ML ACETONE 2/WK FOR 47 WK (STUDY DURATION: 52 WK)) “inactive; negative”; (Species: Mouse, Strain/Sex: B6C3F1/ Female (50/Group), Route: Oral, Dose: 0, 188, 375, 750 mg/kg by gavage in deionized water for 2 yr, Dose: 0, 188, 375, 750 mg/kg by gavage in deionized water for 2 yr, Tumor Site: Type of Lesion: Liver: hepatocellular adenoma (14/50, 26/49, 26/50, 6/50)) “inactive; negative (ntp reports as some evidence based on increased incidences of hepatoce”; (Species: Mouse, Strain/Sex: B6C3F1/ Male (50/Group), Route: Oral, Dose: 0, 188, 375, 750 mg/kg by gavage in deionized water for 2 yr, Dose: 0, 188, 375, 750 mg/kg by gavage in deionized water for 2 yr) “inactive; negative”; (Species: Rat, Strain/Sex: F344/N / Female (50/Group), Route: Oral, Dose: 0, 188, 375, 750 mg/kg by gavage in deionized water for 2 yr, Dose: 0, 188, 375, 750 mg/kg by gavage in deionized water for 2 yr) “inactive; negative”; (Species: Rat, Strain/Sex: F344/N / Male (50/Group), Route: Oral, Dose: 0, 188, 375, 750 mg/kg by gavage in deionized water for 2 yr, Dose: 0, 188, 375, 750 mg/kg by gavage in deionized water for 2 yr) “inactive; negative”.
